Results reported in US20190382396A1, “SALTS OF BICYCLO[1.1.1]PENTANE INHIBITORS OF DUAL LEUCINE ZIPPER (DLK) KINASE FOR THE TREATMENT OF DISEASE” (Board of Regents, The University of Texas System, priority 2018, published 2019).
≈ marks a conversion by molar mass, not a printed value. Where two headings read alike, the source gives them in different places.

Legend:
Type in all cases: physicochemical
[1] = Dynamic vapor sorption (DVS), hygroscopicity
Procedure: Dynamic vapor sorption (“DVS”) was performed at 25° C., using approx 10-15 mg of sample and N2 gas at a flow rate of 200 mL/min, dm/dt=0.01% min, minimum dm/dt stability duration of 10 min, max equilibration time of 180 min, drying at 0% RH for 120 min, scanning from 0% RH to 90% RH to 0% RH with a step size of 10% RH.
Total cycling time varied, but in all cases was about 200-250 min.

[2] = Thermogravimetric analysis / DSC weight loss; conditions: <120° C.
Procedure: Differential scanning calorimetry (“DSC”) was performed with a TA Q2000 instrument, using approx 1 mg of sample in a crimped Al pan, heating from room temperature to 300° C. at a rate of 10° C./min.
Thermogravimetric analysis (“TGA”) was performed with a TA Q5000 instrument, using approx 2-5 mg of sample in an open Pt pan, heating from room temperature to 300° C. at a rate of 10° C./min.

[3] = Solubility of the Example 1 compound in organic solvents; conditions: thermodynamic from solid; for solubility at 2 h: 25 °C, RT; for solubility: 50° C.
Procedure: Solubility of the Example 1 compound in various organic solvents was determined by the following procedure. […] The mixture was stirred at 800 rpm at 25° C. for 2 hr. If the compound was not dissolved completely by this time, the temperature was then raised to 50° C. and stirring at 800 rpm was continued overnight. If a solid precipitate was present, the solid precipitate was then removed by centrifugation (14,000 RPM, 5 min) and dried under vacuum at 30° C. (Method I). If a solid precipitate was not present, the solvent was removed by evaporation under vacuum at 30° C. (Method II). In either case, the resulting material was evaluated by XRPD.

[4] = Stability (50° C., 40° C./75% RH, light; 1 week); conditions: for XRPD change? / purity: bulk, 1 week
Procedure: The stability of the free base 1 and the selected salts 8, 9, 10, and 11 was evaluated. For each material, aliquots were set up at each of conditions (50° C., 40° C./75% RH, light) at given time points (initial and 1 week). PXRD diffractograms of the hydrogen fumarate salt 11 is shown in FIG. 17, with trace (a) showing the initial salt, trace (b) showing the salt after light treatment, trace (c) showing the salt after storage at 40° C. and 75% relative humidity for 1 week, and (d) showing the salt after storage at 50° C. for 1 week.

[5] = Solubility in physiologically relevant solutions (SGF, FaSSIF, FeSSIF); conditions: 25±0.5° C.; for solubility at 24 h: 25 °C, thermodynamic from solid
Procedure: Solubility of the free base 1 and the selected salts 8, 9, 10, and 11 in physiologically relevant solutions were examined. For each material, aliquots were added to 2 ml vials containing 500 uL of either SGF, FaSSIF, or FeSSIF, which were then sealed. The mixtures were kept shaking by thermomixer at 700 rpm, 25±0.5° C. for 24 h to facilitate the dissolution and then centrifuged by 96-well plates at 3000 rpm for 2 min. The filter liquors were diluted with diluents (ACN/water, 50/50) and analyzed by HPLC.

[6] = aqueous with cosolvent or surfactant or cyclodextrin, 1/1 (v/v) Acetone/H2O
[7] = aqueous with cosolvent or surfactant or cyclodextrin, 1/1 (v/v) EtOH/H2O
[8] = organic solvent or mixture, ACN
[9] = organic solvent or mixture, EtOH
[10] = organic solvent or mixture, Heptane
[11] = organic solvent or mixture, MTBE
[12] = organic solvent or mixture, Toluene

## CC(C)c1nc(-c2cnc(N)c(OC(F)(F)F)c2)cn1C12CC(N3CCOCC3)(C1)C2 [Example 1, 5-(2-isopropyl-1-(3-morpholinobicyclo[1.1.1]pentan-1-yl)-1H-imidazol-4-yl)-3-(trifluoromethoxy)pyridin-2-amine]
[1]; DVS, 25° C., 0-40% RH
  Hygroscopicity (0-40% RH): 0.11%
[1]; DVS, 25° C., 0-90% RH
  Hygroscopicity (0-90% RH): 2.44%
[1]; form change after DVS
  Hygroscopicity; form change: no change
[2]
  weight loss (TGA, %): 0.29% (<120° C.)
[3]; [6]
  solubility at 2 h: < 50 mg/mL
  solubility: < 50 mg/mL
[3]; [7]
  solubility at 2 h: < 50 mg/mL
  solubility: < 50 mg/mL
[3]; [8]
  solubility at 2 h: < 50 mg/mL
  solubility: > 50 mg/mL
[3]; organic solvent or mixture, Acetone
  solubility at 2 h: > 50 mg/mL
[3]; organic solvent or mixture, DCM
  solubility at 2 h: > 50 mg/mL
[3]; organic solvent or mixture, DMF
  solubility at 2 h: > 50 mg/mL
[3]; organic solvent or mixture, DMSO
  solubility at 2 h: > 50 mg/mL
[3]; organic solvent or mixture, Dioxane
  solubility at 2 h: > 50 mg/mL
[3]; organic solvent or mixture, EtOAc
  solubility at 2 h: > 50 mg/mL
[3]; [9]
  solubility at 2 h: < 50 mg/mL
  solubility: > 50 mg/mL
[3]; [10]
  solubility at 2 h: < 50 mg/mL
  solubility: < 50 mg/mL
[3]; organic solvent or mixture, IPA
  solubility at 2 h: > 50 mg/mL
[3]; organic solvent or mixture, MEK
  solubility at 2 h: > 50 mg/mL
[3]; [11]
  solubility at 2 h: < 50 mg/mL
  solubility: < 50 mg/mL
[3]; organic solvent or mixture, MeOH
  solubility at 2 h: > 50 mg/mL
[3]; organic solvent or mixture, THF
  solubility at 2 h: > 50 mg/mL
[3]; [12]
  solubility at 2 h: < 50 mg/mL
  solubility: < 50 mg/mL
[3]; water, H2O
  solubility at 2 h: < 50 mg/mL
  solubility: < 50 mg/mL
[4]; 40° C., 75% RH
  XRPD change?: yes
  purity: 99.66%
[4]; 50° C.
  XRPD change?: yes
  purity: 99.41%
[4]; initial (before storage)
  initial purity: 99.59%
[4]; light
  XRPD change?: yes (1)
  purity: 96.61%
[5]; simulated gastric fluid, SGF, read-out: Solubility SGF Conc
  solubility at 24 h: 4.56 mg/mL (≈ 10.4 mM)
[5]; FaSSIF, read-out: Solubility FaSSIF Conc
  solubility at 24 h: 0.0713 mg/mL (≈ 0.163 mM)
[5]; FeSSIF, read-out: Solubility FeSSIF Conc
  solubility at 24 h: 0.473 mg/mL (≈ 1.08 mM)
[5]; FaSSIF
  FaSSIF pH after 24 h: 6.48
[5]; FeSSIF
  FeSSIF pH after 24 h: 5.00
[5]; SGF
  SGF pH after 24 h: 3.83
